# Assays:
# [1] = test system: IL-17 secreting cells; experiment: Determination of IL-17 producing cells by flow cytometry in PBMC; assay type: cell-based; conditions: human PBMC, Cytostim, 4 h, read-out: inhibition of IL17 (IL-17 secreting cells normalized to total CD4+ cells)
# Protocol: 3. Determination of IL-17 Producing Cells by Flow Cytometry:
# PBMC isolated from human blood were stimulated and treated with desired concentrations of the test compounds prior to stimulation with Cytostim (Milteny Biotech, Germany). After 4 h, IL-17 secreting cells were stained using the IL-17 secretion assay kit as per the manufacturer's instruction and normalized to total CD4+ cells within the PBMC population. Data were analyzed using Graph pad prism.
# [2] = test system: PBMC; experiment: Inhibition of PHA induced PBMC proliferation (MTT); assay type: cell-based; conditions: Homo sapiens, 48 h
# Protocol: a. Inhibition of PHA Induced PBMC Proliferation:
# PBMC from freshly collected HWB was isolated by density gradient using Histopaque and seeded in a 96-well plate. Wells were incubated with desired concentrations of the inhibitor for 15 min. Proliferation was induced by the addition of 2 μM Phytohemagglutinin at 37° C. in an atmosphere containing […]. Viability was determined after 48 h using an 3-(4,5-Dimethylthiazol-2-yl)-2,5-diphenyltetrazolium bromide (MTT) assay. Data were analyzed using GraphPad Prism. percent inhibition and/or GI50 values for each compound were determined based on the percent inhibition due to the test compound compared to the control.
# [3] = test system: CD4+ cell; experiment: Inhibition of PHA induced CD4+ cell proliferation in human whole blood; assay type: cell-based; conditions: 48 h, flow cytometry
# Protocol: c. Inhibition of PHA Induced CD4+ Cell Proliferation in Human Whole Blood:
# (§1) HWB or were treated with desired concentration of inhibitor and induced with 5 μM PHA. % CD4+ cell viability was determined after 48 h by flow cytometry. Data were analyzed using GraphPad Prism. Percent inhibition and IC50 values for each compound were determined based on the percent inhibition due to the test compound compared to the control.
# [4] = test system: CD4+ cell; experiment: Inhibition of PHA induced CD4+ cell proliferation in PBMC; assay type: cell-based; conditions: Homo sapiens, isolated PBMC, 48 h, flow cytometry
# Protocol: d. Inhibition of PHA Induced CD4+ Cell Proliferation in PBMC:
# as §1, with “Isolated PBMC” for “HWB or”, “Prism.” for “Prism. Percent inhibition and”
# [5] = Single dose oral hepatotoxicity assay; assay type: in vivo, BALB/cJ mice; conditions: serum, 24 hr after 100 mg/kg po single dose, mice
# Protocol: 5. Single Dose Oral Hepatotoxicity Assay:
# BALB/cJ (n=4 or 5/sex) mice aged 8 to 10 weeks, with weights ranging from 18 to 25 g were used. They were housed under conditions of controlled temperature and humidity and a 12-h light/dark cycle. They were given continuous access to bottled spring water and fed a standard chow at ad libitum. The mice were allowed to acclimate for 1 week before use. On the day of experiment mice were fasted overnight for 12 h and administered with test item formulation (100 mg/kg·b·wt/po) or vehicle (10 ml/kg·b·wt/po) by oral route and food was given 4 hr after test item administration. After 24 hr post administration blood samples were collected from orbital sinus of all the animals and serum was separated to assess the hepatotoxicity. Biochemical evaluation of liver function was determined by measuring serum enzyme activities of alanine aminotransferase (ALT) and aspartate aminotransferase (AST) using commercially available kits from Sigma (St. Louis, Mo.).
# [6] = test system: IL-17; experiment: Inhibition of IL-17 release from mouse splenocytes (PMA + ionomycin, ELISA); assay type: cell-based, Balb/c mice; conditions: Splenocyte, 3 h
# Method in brief: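 Balb/c splenocytes (1×10^6 cells/ml, RPMI) were pretreated with inhibitor for 15 min, then stimulated with 10 ng/ml PMA plus 1 μM ionomycin. Supernatant IL-17 was measured by ELISA after 3 h. IC50 was derived from percent inhibition relative to control.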
# [7] = target: T1, h-DHODH (Homo sapiens, UniProt Q02127); experiment: Dihydro-orotate dehydrogenase inhibition assay (U937 membrane preparations, DCIP reduction); assay type: biochemical; conditions: U937 membrane preparation
# T1 construct: endogenous in cells; host or cells: U937 cells (membrane fraction, solubilised with 1% octyl glucoside)
# T1 sequence (Q02127 whole entry): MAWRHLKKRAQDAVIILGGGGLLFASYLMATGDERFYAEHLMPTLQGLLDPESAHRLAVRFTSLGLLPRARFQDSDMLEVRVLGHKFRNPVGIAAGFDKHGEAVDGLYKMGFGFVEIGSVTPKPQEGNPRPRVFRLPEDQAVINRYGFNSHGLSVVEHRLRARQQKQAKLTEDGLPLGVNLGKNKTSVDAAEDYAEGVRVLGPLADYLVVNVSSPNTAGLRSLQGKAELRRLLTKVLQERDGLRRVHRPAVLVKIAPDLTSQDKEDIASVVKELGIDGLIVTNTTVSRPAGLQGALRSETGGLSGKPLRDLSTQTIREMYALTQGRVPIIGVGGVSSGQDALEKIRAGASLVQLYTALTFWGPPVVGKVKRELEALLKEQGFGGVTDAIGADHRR
# Method in brief: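 Detergent (1% octyl glucoside) extract of U937 cell membranes; dihydro-orotate-driven DCIP reduction followed as absorbance change at 600 nm after 4 h at 37° C. IC50 derived from percent inhibition of […].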
# [8] = test system: IL17; experiment: Inhibition of PHA induced cytokine (IL17) release in PBMC; assay type: cell-based; conditions: Homo sapiens, 48 h, ELISA
# Protocol: b. Inhibition of PHA Induced Cytokine (IL17) Release:
# PBMC from freshly collected HWB were isolated by density gradient using Histopaque and seeded in a 96-well plate. Wells were incubated with desired concentrations of the inhibitor for 15 min. Proliferation was induced by the addition of 2 μM Phytohemagglutinin at 37° C. in an atmosphere containing […]. Supernatant was collected after 48 h for estimation of cytokines by ELISA. Data were analyzed using GraphPad Prism. Percent inhibition and IC50 values for each compound were determined based on the percent inhibition due to the test compound compared to the control.
SMILES,melting point,inhibition at 1 µM [1],inhibition at 10 µM [2],inhibition at 1 µM [3],inhibition at 1 µM [4],ALT [5],AST [5],inhibition at 10 µM [6],IC50 [6],inhibition at 1 µM [7],IC50 [7],inhibition at 10 µM [8]
"CCCCOc1cccc(-c2cc(F)c(NC(=O)c3ccccc3C(=O)O)c(Cl)c2)c1 [Example 29, 2-(3′-butoxy-3-chloro-5-fluorobiphenyl-4-ylcarbamoyl)benzoic acid]",128 to 130 °C,43.6%,> 70%,> 65%,> 90%,67.9 U/L,114.4 U/L,46.1%,18800 nM,94%,7.93 nM,–
"CCOc1cccc(-c2cc(F)c(NC(=O)c3ccccc3C(=O)O)c(F)c2)c1 [Example 5, 2-(3′-Ethoxy-3,5-difluorobiphenyl-4-ylcarbamoyl)benzoic acid]",136 to 141 °C,–,–,–,–,113.6 U/L,137.8 U/L,30.8%,–,85.7%,49.8 nM,> 50%

# — US8686048B2, “Immunomodulator and anti-inflammatory compounds” (Rhizen Pharmaceuticals SA, priority 2010, dated 2014)
